{"source": "paper PMC7300217", "about": "“Surfactin Like Broad Spectrum Antimicrobial Lipopeptide Co-produced With Sublancin From Bacillus subtilis Strain A52: Dual Reservoir of Bioactives” (Frontiers in Microbiology, 2020)", "key": {"[1]": {"tested_on": "C. acutatum MTCC1037", "assay": "MIC against phytopathogenic fungi, 96-well microtiter plate assay", "assay_type": "cell-based, Colletotrichum acutatum", "settings": "1 × 10^5 spores/ml in PDB, 25°C, OD600 after 48 h, triplicate", "description": "(§1) The antimicrobial activity was tested by well diffusion assay as mentioned earlier ([Singh et al., 2014]). Strain A52 was grown for 24 h in 500 ml of nutrient broth (NB, Hi-media, India) using 1000 ml flask and subsequently cells were removed by centrifugation (10,000 rpm for 15 min at 4°C). Supernatant was filtered through 0.22 μm filter (Millipore, United States) to obtain cell-free fermented broth (CFB) that was used for antimicrobial assay (50 μl) against various indicator strains and the activity was measured as diameter of inhibition zone. […]\n(§2) The minimum inhibitory concentration (MIC) of HPLC purified peptides was evaluated by using microtiter plate dilution assay. […] OD was measured at 600 nm after 24 and 48 h for bacteria and yeast, respectively, using ELISA microplate reader (Thermo, United States). MIC against phytopathogenic fungi was determined using 96-well microtiter plate assay ([Kaur et al., 2016]). […] The microplates were incubated at 25°C and readings were recorded at 600 nm after 48 h. […]"}, "[2]": {"tested_on": "F. moniliforme MTCC 158", "assay": "MIC against phytopathogenic fungi, 96-well microtiter plate assay", "assay_type": "cell-based, Fusarium moniliforme", "settings": "1 × 10^5 spores/ml in PDB, 25°C, OD600 after 48 h, triplicate", "description": "(§3) The antimicrobial activity was tested by well diffusion assay as mentioned earlier ([Singh et al., 2014]). Strain A52 was grown for 24 h in 500 ml of nutrient broth (NB, Hi-media, India) using 1000 ml flask and subsequently cells were removed by centrifugation (10,000 rpm for 15 min at 4°C). Supernatant was filtered through 0.22 μm filter (Millipore, United States) to obtain cell-free fermented broth (CFB) that was used for antimicrobial assay (50 μl) against various indicator strains and the activity was measured as diameter of inhibition zone. Test strains used were Staphylococcus aureus (MTCC 1430), Bacillus subtilis (MTCC 121), B. firmus (MTCC 488), B. licheniformis (MTCC 429), B. thuringiensis (MTCC 1953), Escherichia coli (MTCC 1610), Micrococcus luteus (MTCC 106), Steptococcus pyrogens (MTCC 1928), S. anginosus (MTCC 1929), S. oralis (MTCC 2696), S. mutans (MTCC 497), Candida albicans (MTCC 1637), C. albicans (MTCC 183), C. albicans (MTCC 227), C. tropicalis (MTCC 184), C. glabrata (MTCC 3019), C. haemulonii (MTCC 2766), and C. inconsplicue (MTCC 1074). The phytopathogenic fungi employed in this study were Alternaria brassicicola (MTCC 2102), Colletotrichum acutatum (MTCC 1037), and Fusarium moniliforme (MTCC 158). Clinical isolates of Candida were provided by National Culture Collection of Pathogenic Fungi (NCCPF), PGIMER, Chandigarh, India.\nas §2, with “assay. The peptide concentration was estimated using BCA protein assay (Thermo Fisher Scientific, United States) method as described by manufacturer.” for “assay.”"}, "[3]": {"tested_on": "S. aureus MTCC 1430", "assay": "Time kill assay", "assay_type": "cell-based, Staphylococcus aureus", "settings": "5X MIC, cells in PBS, CFU plated on nutrient agar", "description": "Purified AMPs were used to perform time kill assay against S. aureus MTCC 1430 as mentioned earlier ([Baindara et al., 2016]). Actively growing bacterial culture (0.2–0.3 OD at 600 nm) was centrifuged (10,000 rpm for 15 min at 4°C) and washed thrice with sterile PBS buffer. […] Upon incubation for different time intervals, cells were removed from reaction mixture by centrifugation and washed with PBS buffer. Bacterial culture without AMP treatment was used as negative control. Samples were withdrawn at the end of different treatment time points starting from 0 to 8 h, bacterial cells were pelleted, serially diluted, and cell suspensions were plated on nutrient agar plates. For each treatment, negative controls were also processed under identical conditions and plated on NA. CFU at different time intervals were recorded after overnight incubation at 37°C."}, "[4]": {"tested_on": "A. brassicicola MTCC 2102", "assay": "MIC against phytopathogenic fungi, 96-well microtiter plate assay", "assay_type": "cell-based, Alternaria brassicicola", "settings": "1 × 10^5 spores/ml in PDB, 25°C, OD600 after 48 h, triplicate", "description": "as §1, §2"}, "[5]": {"tested_on": "S. aureus MTCC 1430", "assay": "In-gel activity assay (Tricine-SDS-PAGE)", "assay_type": "cell-based, Staphylococcus aureus", "settings": "16% Tricine-SDS-PAGE, ∼10^6 cells/ml", "description": "Purified antimicrobial peptides were analyzed on TLC plates (Silica gel 60 F254, Merck, Germany) and used to determine the purity and antimicrobial activity of the compound by bioautographic assay ([Zheng et al., 2005]). About 50–60 μl of the peptide solution (100 μg/ml concentration) was loaded onto individual TLC silica gel plates in duplicates and were developed using a solvent system containing chloroform: […]: water (65:12:4 v/v). Subsequently, each TLC plate was dried, cut into two vertical parts, and one part of the TLC was used for direct detection of antimicrobial activity by overlaying on NA plate containing indicator strain (S. aureus MTCC 1430, ∼10^6 cells/ml). After allowing for 1 h of diffusion at 4°C, the TLC strip was removed and plates were incubated for 24 h at 37°C. The other part of TLC strip (5–10 μl of the peptide solution spot) was sprayed with ninhydrin and phosphomolybdic acid as a staining reagent to detect the presence of peptides and lipid moieties, respectively. Similarly, peptides were electrophoresed on 16% Tricine-SDS-PAGE and used for in-gel activity assay as described earlier ([Baindara et al., 2016]). S. aureus MTCC 1430 (∼10^6 cells/ml) was used as an indicator strain in assay."}, "[6]": {"tested_on": "S. pyogenes MTCC 1928", "assay": "MIC, microtiter plate dilution assay", "assay_type": "cell-based", "settings": "5 × 10^5 CFU/ml, 37°C, OD600 after 24 h, triplicate", "description": "as §3\n(§4) The minimum inhibitory concentration (MIC) of HPLC purified peptides was evaluated by using microtiter plate dilution assay. The peptide concentration was estimated using BCA protein assay (Thermo Fisher Scientific, United States) method as described by manufacturer. Actively growing test strains (5 × 10^5 CFU/ml) were inoculated in a 96-well plate with different concentrations of the peptides and plates were incubated for 24–48 h at 37°C (final volume in each well is 200 μl). OD was measured at 600 nm after 24 and 48 h for bacteria and yeast, respectively, using ELISA microplate reader (Thermo, United States). MIC against phytopathogenic fungi was determined using 96-well microtiter plate assay ([Kaur et al., 2016]). In 96-well microplates, 100 μl of fungal spore suspension (1 × 10^5 spores/ml) prepared in potato dextrose broth (PDB, Hi-media, India) was mixed with100 μl of fresh PDB containing different concentrations of lipopeptide. Control well contained 100 μl of fungal spore suspension and 100 μl of only medium. The microplates were incubated at 25°C and readings were recorded at 600 nm after 48 h. The lowest concentration showing no growth was considered as MIC. Each test was done in triplicate and optical density (OD600) of peptide treated wells were compared with uninoculated wells (blank medium control)."}, "[7]": {"tested_on": "S. oralis MTCC 2696", "assay": "MIC, microtiter plate dilution assay", "assay_type": "cell-based", "settings": "5 × 10^5 CFU/ml, 37°C, OD600 after 24 h, triplicate", "description": "as §3, §4"}, "[8]": {"tested_on": "C. haemulonii 470125 (clinical isolate)", "assay": "MIC, microtiter plate dilution assay", "assay_type": "cell-based", "settings": "5 × 10^5 CFU/ml, 37°C, OD600 after 48 h, triplicate", "description": "as §3, §4"}, "[9]": {"tested_on": "C. glabrata SKSS ID (clinical isolate)", "assay": "MIC, microtiter plate dilution assay", "assay_type": "cell-based", "settings": "5 × 10^5 CFU/ml, 37°C, OD600 after 48 h, triplicate", "description": "as §3, §4"}, "[10]": {"tested_on": "C. parasilosis 450030 (clinical isolate)", "assay": "MIC, microtiter plate dilution assay", "assay_type": "cell-based", "settings": "5 × 10^5 CFU/ml, 37°C, OD600 after 48 h, triplicate", "description": "as §3, §4"}, "[11]": {"tested_on": "C. tropicalis MTCC 184", "assay": "MIC, microtiter plate dilution assay", "assay_type": "cell-based", "settings": "5 × 10^5 CFU/ml, 37°C, OD600 after 48 h, triplicate", "description": "as §3, §4"}, "[12]": {"tested_on": "C. rugos 470141 (clinical isolate)", "assay": "MIC, microtiter plate dilution assay", "assay_type": "cell-based", "settings": "5 × 10^5 CFU/ml, 37°C, OD600 after 48 h, triplicate", "description": "as §3, §4"}, "[13]": {"tested_on": "S. mutans MTCC 497", "assay": "MIC, microtiter plate dilution assay", "assay_type": "cell-based", "settings": "5 × 10^5 CFU/ml, 37°C, OD600 after 24 h, triplicate", "description": "as §3, §4"}, "[14]": {"tested_on": "C. haemulonii MTCC 2766", "assay": "MIC, microtiter plate dilution assay", "assay_type": "cell-based", "settings": "5 × 10^5 CFU/ml, 37°C, OD600 after 48 h, triplicate", "description": "as §3, §4"}, "[15]": {"tested_on": "C. inconsplicue MTCC 1074", "assay": "MIC, microtiter plate dilution assay", "assay_type": "cell-based", "settings": "5 × 10^5 CFU/ml, 37°C, OD600 after 48 h, triplicate", "description": "as §3, §4"}}}
{"substance": "Glu^1-Leu/Ile^2-Leu^3-Val^4-Asp^5-Leu^6-Leu/Ile^7 and a β-OH hexadecane fatty acid chain (lariat or depsi) [Lipopeptide A52, cyclic surfactin-like lipopeptide, 7 amino acids and C16 β-hydroxy fatty acid, 1061.9 Da, from B. subtilis strain A52]", "values": [{"measurement": "MIC value, C. acutatum MTCC1037", "setting": "[1]", "value": 35, "unit": "µg/mL"}, {"measurement": "MIC value, F. moniliforme MTCC 158", "setting": "[2]", "value": 20, "unit": "µg/mL"}, {"measurement": "time of treatment to complete killing / complete reduction of bacterial load", "setting": "[3]", "value": "≤ 7", "unit": "h"}, {"measurement": "MIC value, A. brassicicola MTCC 2102", "setting": "[4]", "value": 25, "unit": "µg/mL"}, {"measurement": "antimicrobial activity in in-gel assay", "setting": "[5]", "value": "No antimicrobial activity was detected"}, {"measurement": "MIC value, S. pyogenes MTCC 1928", "setting": "[6]", "value": 2, "unit": "µg/mL"}, {"measurement": "MIC value, S. oralis MTCC 2696", "setting": "[7]", "value": 4, "unit": "µg/mL"}, {"measurement": "MIC value, C. haemulonii 470125", "setting": "[8]", "value": 28, "unit": "µg/mL"}, {"measurement": "MIC value, C. glabrata SKSS ID", "setting": "[9]", "value": 16, "unit": "µg/mL"}, {"measurement": "MIC value, C. parasilosis 450030", "setting": "[10]", "value": 28, "unit": "µg/mL"}, {"measurement": "MIC value, C. tropicalis MTCC 184", "setting": "[11]", "value": 12, "unit": "µg/mL"}, {"measurement": "MIC value, C. rugos 470141", "setting": "[12]", "value": 16, "unit": "µg/mL"}, {"measurement": "MIC value, S. mutans MTCC 497", "setting": "[13]", "value": 6, "unit": "µg/mL"}, {"measurement": "MIC value, C. haemulonii MTCC 2766", "setting": "[14]", "value": 20, "unit": "µg/mL"}, {"measurement": "MIC value, C. inconsplicue MTCC 1074", "setting": "[15]", "value": 16, "unit": "µg/mL"}]}
